From patent US20150283269A1, “RECONSTITUTED HUMAN IMMUNE SYSTEM IN A PATIENT DERIVED XENOGRAFT MOUSE MODEL” (Crown Bioscience Inc., priority 2014, published 2015)

Test system: GA 0055 tumor
Assay: Anti-tumor activity against GA 0055 gastric tumor PDX in HuMice and NOD/SCID mice
Format: in vivo, mouse
Description: In yet another example of the utility of the HuPrime™ 3.0 mouse model (PDX human immunocompetent NOD/SCID mouse with CD34^+ hSC+PDX gastric tumor), patient cells derived from a human patient diagnosed with over-expressing gastric cancer, GA 0055, were engrafted into HuPrime™ 3.0 mice.
The HuPrime™ 3.0 mice engrafted with GA 0055 were divided into six groups, four mice each. Three groups were engrafted with UCB human stem cells and three groups were not.
Patient tumor fragments of NSCLC or gastric tumor tissue derived from diseased seed mice were engrafted 2.5 weeks after the CD34+ cell inoculation in order to create patient derived xenograft (PDX) models. Solid tumor sample fragments from seed mice inoculated with selected primary human lung or gastric cancer tissues were harvested and used for inoculation into mice. Each mouse was inoculated subcutaneously at the right flank with one tumor fragment (2-3 mm in diameter) for tumor development. The treatments were started when mean tumor size reached approximately 100-150 mm^3 The transplanted animals were monitored by weekly bleed and FACS analysis for hCD45^+ cells in peripheral blood.

N.N.[Cl][Pt][Cl] [Cisplatin]
treatment response, stained GA 0055 tumor cross-sections (5 mg/kg Cisplatin, H&E stained cross-section (40x10), FIG. 6A): effective | tumor growth (HuMice mice (reconstituted human immunocompetent) engrafted with GA 0055, with vs without treatment, FIG. 7A, 7C): slowed tumor growth
